# Experimental data taken from ChEMBL document CHEMBL6087456 (J Med Chem, 2025).
# Calls of active or inactive are those of the source. The rule behind the calls is not given here.
# Legend:
# [1] = biological target: T1, Dihydroorotate dehydrogenase (quinone), mitochondrial (Plasmodium falciparum (isolate 3D7), UniProt Q08210); assay: Inhibition of N-terminal His6-tagged recombinant Plasmodium falciparum DHODH (158 to 569 residues) N-terminally truncated soluble domain extracted from Escherichia coli phage resistant BL21-DE3 using CoQD/DHA/DCIP as substrates
# T1 sequence (Q08210 whole entry): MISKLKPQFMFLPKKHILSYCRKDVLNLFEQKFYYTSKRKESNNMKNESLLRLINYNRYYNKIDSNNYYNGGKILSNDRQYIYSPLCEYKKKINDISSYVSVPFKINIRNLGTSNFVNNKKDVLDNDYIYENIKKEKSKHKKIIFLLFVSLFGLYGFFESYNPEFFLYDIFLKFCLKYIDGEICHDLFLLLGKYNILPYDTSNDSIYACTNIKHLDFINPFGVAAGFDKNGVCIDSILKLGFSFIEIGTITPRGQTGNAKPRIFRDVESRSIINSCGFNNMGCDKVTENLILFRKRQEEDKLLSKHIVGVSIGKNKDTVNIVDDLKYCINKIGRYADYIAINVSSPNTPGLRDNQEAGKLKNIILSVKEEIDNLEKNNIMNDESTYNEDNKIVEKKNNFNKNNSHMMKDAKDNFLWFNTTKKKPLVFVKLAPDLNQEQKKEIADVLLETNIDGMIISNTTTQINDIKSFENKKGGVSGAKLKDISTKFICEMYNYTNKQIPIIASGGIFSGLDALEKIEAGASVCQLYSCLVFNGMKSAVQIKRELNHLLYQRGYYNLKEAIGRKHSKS
# [2] = biological target: T2, Cytochrome P450 2B6 (Homo sapiens, UniProt P20813); assay: Time-dependent inhibition of CYP2B6 in human liver microsomes; type: ADME, Microsome
# T2 sequence (P20813 whole entry): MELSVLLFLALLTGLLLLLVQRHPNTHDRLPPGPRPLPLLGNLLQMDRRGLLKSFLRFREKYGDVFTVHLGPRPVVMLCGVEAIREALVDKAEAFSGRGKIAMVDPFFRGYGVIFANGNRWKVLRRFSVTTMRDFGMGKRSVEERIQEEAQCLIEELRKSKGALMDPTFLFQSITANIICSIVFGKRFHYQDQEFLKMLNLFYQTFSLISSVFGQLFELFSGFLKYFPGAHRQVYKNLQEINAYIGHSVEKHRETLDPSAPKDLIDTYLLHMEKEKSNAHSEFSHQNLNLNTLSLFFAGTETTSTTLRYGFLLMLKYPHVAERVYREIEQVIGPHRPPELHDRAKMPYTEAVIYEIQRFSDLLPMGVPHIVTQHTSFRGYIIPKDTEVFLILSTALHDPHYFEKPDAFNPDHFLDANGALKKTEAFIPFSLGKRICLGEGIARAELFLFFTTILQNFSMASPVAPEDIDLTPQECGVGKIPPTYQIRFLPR
# [3] = biological target: Cytochrome P450 2C9 (Homo sapiens, UniProt P11712); assay: Time-dependent inhibition of CYP2C9 in human liver microsomes; type: ADME, Microsome
# Sequence of Cytochrome P450 2C9 (P11712 whole entry): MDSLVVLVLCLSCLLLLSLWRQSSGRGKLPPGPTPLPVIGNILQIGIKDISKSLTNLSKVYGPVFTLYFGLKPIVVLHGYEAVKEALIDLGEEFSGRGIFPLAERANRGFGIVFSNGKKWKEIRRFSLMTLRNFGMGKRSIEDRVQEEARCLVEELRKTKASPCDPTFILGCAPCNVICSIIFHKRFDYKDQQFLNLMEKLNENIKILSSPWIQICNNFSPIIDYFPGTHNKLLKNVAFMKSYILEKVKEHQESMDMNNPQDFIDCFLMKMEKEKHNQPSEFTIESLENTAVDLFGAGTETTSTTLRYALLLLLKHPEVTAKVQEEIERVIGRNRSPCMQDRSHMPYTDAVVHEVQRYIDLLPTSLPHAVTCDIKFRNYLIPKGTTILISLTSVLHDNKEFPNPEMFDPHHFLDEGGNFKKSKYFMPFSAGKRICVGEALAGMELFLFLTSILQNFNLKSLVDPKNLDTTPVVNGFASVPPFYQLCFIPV
# [4] = biological target: Cytochrome P450 2C19 (Homo sapiens, UniProt P33261); assay: Time-dependent inhibition of CYP2C19 in human liver microsomes; type: ADME, Microsome
# Sequence of Cytochrome P450 2C19 (P33261 whole entry): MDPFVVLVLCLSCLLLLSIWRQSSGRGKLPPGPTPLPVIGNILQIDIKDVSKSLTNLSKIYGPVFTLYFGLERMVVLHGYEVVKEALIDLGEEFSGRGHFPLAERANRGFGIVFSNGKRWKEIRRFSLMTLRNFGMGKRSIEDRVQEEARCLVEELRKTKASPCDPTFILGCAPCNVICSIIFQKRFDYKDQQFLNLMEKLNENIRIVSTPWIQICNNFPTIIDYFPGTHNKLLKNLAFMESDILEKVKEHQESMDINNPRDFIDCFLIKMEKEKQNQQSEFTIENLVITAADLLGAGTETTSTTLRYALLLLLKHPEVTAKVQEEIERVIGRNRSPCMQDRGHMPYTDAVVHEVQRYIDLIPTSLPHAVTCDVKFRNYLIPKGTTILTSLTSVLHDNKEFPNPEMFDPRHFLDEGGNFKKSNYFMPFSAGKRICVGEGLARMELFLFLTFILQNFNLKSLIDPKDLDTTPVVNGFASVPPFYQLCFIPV
# [5] = Metabolic stability in human liver microsomes assessed as intrinsic clearance at 0.5 uM incubated for 60 mins in presence of NADPH by tandem quadrupole-Time of Flight MS; type: ADME, Microsome; conditions: 1 h
# [6] = biological target: Voltage-gated inwardly rectifying potassium channel KCNH2 (Homo sapiens, UniProt Q12809); assay: Inhibition of hERG expressed in CHO cells by whole-cell patch-clamp assay; type: toxicity, cell-based
# Sequence of Voltage-gated inwardly rectifying potassium channel KCNH2 (Q12809 whole entry): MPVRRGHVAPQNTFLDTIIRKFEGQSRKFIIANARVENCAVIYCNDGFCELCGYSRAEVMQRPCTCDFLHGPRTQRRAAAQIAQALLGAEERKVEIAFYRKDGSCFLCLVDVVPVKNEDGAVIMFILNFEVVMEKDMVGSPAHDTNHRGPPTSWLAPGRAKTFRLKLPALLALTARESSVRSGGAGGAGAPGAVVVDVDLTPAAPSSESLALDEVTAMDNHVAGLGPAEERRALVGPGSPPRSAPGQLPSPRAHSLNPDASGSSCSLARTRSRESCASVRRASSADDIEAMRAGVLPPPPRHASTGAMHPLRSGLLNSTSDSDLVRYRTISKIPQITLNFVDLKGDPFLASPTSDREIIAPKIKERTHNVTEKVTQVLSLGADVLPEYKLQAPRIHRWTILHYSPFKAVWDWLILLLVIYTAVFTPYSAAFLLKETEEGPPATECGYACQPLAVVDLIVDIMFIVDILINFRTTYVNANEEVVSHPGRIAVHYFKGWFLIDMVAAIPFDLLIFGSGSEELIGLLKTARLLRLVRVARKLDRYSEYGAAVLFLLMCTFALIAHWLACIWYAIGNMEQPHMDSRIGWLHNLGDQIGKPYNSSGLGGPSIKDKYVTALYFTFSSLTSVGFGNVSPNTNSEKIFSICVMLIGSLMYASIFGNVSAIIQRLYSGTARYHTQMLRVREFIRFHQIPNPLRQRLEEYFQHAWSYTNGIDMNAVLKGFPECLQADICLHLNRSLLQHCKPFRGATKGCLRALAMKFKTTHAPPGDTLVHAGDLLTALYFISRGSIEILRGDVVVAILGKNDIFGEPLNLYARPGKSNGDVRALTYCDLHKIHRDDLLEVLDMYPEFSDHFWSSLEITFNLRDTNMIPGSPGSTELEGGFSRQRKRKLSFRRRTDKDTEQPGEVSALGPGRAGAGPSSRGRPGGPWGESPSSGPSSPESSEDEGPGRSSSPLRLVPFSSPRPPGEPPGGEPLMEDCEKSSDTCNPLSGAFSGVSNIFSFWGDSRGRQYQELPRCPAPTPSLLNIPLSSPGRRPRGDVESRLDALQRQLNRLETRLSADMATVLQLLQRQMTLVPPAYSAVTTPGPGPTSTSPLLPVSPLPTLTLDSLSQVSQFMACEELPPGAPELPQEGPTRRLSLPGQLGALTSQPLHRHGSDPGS
# [7] = system: Plasmodium falciparum; assay: Antimalarial activity against erythrocyte asexual stage Plasmodium falciparum 3D7 0087/N9 infected in humanized SCID mouse model at 1 to 30 mg/kg administered once daily for 6 days measured on day 9; type: functional, organism-based; conditions: dose 1-30 mg/kg, time 6.0 day
# [8] = Plasma protein binding in human measured for 6 hrs by rapid equilibrium dialysis; type: ADME, cell-free
# [9] = biological target: T3, Cytochrome P450 1A2 (Homo sapiens, UniProt P05177); assay: Time-dependent inhibition of CYP1A2 in human liver microsomes; type: ADME, Microsome
# T3 sequence (P05177 whole entry): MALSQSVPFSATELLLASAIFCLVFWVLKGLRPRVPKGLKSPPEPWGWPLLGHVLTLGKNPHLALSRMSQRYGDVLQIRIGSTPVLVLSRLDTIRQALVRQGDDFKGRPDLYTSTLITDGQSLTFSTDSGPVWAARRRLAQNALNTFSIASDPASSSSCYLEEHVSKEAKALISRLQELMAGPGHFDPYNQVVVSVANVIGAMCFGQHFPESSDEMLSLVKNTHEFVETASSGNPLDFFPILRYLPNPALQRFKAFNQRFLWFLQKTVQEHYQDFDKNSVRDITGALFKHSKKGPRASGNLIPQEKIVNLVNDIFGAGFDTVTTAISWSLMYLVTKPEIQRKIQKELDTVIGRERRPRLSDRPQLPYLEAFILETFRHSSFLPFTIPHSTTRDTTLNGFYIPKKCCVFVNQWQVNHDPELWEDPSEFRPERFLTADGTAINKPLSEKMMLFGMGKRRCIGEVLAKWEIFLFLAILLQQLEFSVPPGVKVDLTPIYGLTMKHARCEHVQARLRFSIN
# [10] = system: Plasmodium falciparum; assay: Antiparasitic activity against Plasmodium falciparum 3D7 assessed as lag time before killing at 10 times EC50 pretreated for 120 hrs followed by compound removal and replacement of media without compound measured after 28 days by cell killing assay; type: functional
# [11] = Cytotoxicity against human Jurkat cells by Cell Titer Glo assay; type: toxicity, cell-based
# [12] = Apparent half life in humanized SCID mouse model at 30 mg/kg, po; type: ADME, organism-based; conditions: in vivo, read-out: t1/2(app) (converted)
# [13] = biological target: Cytochrome P450 2D6 (Homo sapiens, UniProt P10635); assay: Inhibition of CYP2D6 in human liver microsomes; type: ADME, Microsome
# Sequence of Cytochrome P450 2D6 (P10635 whole entry): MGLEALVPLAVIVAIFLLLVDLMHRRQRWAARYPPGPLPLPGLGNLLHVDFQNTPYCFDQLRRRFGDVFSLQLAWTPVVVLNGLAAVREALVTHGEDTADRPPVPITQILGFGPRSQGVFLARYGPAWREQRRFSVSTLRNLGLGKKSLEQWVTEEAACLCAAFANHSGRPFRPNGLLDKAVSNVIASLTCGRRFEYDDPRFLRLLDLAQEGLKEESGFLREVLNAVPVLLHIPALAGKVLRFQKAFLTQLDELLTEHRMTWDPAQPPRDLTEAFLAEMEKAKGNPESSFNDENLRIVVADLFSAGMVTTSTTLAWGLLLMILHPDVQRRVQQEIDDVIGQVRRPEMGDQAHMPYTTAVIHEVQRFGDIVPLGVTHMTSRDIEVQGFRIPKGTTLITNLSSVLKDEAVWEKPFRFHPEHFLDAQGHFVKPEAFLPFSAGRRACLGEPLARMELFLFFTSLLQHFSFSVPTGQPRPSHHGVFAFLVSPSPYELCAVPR
# [14] = biological target: Cytochrome P450 3A4 (Homo sapiens, UniProt P08684); assay: Inhibition of CYP3A4 in human liver microsomes; type: ADME, Microsome
# Sequence of Cytochrome P450 3A4 (P08684 whole entry): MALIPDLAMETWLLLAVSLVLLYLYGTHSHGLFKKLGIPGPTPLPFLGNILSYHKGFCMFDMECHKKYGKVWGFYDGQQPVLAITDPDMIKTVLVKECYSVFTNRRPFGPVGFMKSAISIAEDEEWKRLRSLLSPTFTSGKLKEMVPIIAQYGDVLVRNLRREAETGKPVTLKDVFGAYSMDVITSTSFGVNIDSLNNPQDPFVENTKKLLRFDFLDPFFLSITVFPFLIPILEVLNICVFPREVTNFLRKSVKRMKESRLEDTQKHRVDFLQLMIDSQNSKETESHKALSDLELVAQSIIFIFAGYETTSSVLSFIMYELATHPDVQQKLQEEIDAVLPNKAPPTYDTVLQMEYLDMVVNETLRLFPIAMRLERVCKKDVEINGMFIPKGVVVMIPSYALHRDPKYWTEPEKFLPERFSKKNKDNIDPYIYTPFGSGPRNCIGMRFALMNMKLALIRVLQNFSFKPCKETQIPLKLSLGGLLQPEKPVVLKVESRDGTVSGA
# [15] = Kinetic solubility of compound at pH 6.5 measured after 30 mins by nephelometry; type: physicochemical; conditions: buffer, pH 6.5, read-out: Kinetic_solubility
# [16] = Permeability across apical to basal side in human Caco-2 cells; type: ADME, cell-based
# [17] = Oral bioavailability in overnight-fasted male Sprague-Dawley rat at 3 mg/kg measured upto 72 hrs by LCMS analysis; type: ADME, organism-based; conditions: in vivo
smiles,measurement,setting,value
Cn1nc2c(=O)n(C3CC3)cnc2c1[C@](O)(c1cnc(C(F)(F)F)c(Cl)c1)C(F)(F)F,IC50,[1],0.015 µM
same,TDI,[2],Not_active
same,TDI,[3],Not_active
same,TDI,[4],Not_active
same,intrinsic clearance (CLint),[5],< 3 µL/min/mg
same,EC50,[6],~50 µM
same,Activity,[7],Active
same,PPB,[8],98.9%
same,TDI,[9],Not_active
same,Time,[10],~26 h
same,CC50,[11],> 20 µM
same,half-life,[12],7.8 h
same,IC50,[13],> 20 µM
same,IC50,[14],> 20 µM
same,solubility kinetic at 0.5 h,[15],80 µM
same,permeability,[16],Permeable
same,F,[17],> 89%
